Results: patent publication US7794994B2 (Kemeta, LLC, priority 2001, dated 2010)

How the values were obtained:
S-ADH from strain IP-1 = test: S-ADH spectrophotometric assay, partially purified S-ADH of isolate IP-1; type: biochemical, isopropanol-grown bacterial strain TDCC IP-1; conditions: for Relative S-ADH Activity (%) IP-1, alcohol oxidation: alcohol oxidation rates, pH 7.6, 2.5 mM substrate, 0.2 mM NAD+, 2-propanol = 100, NA = no activity detected
Description: Protein purifications. […] Secondary alcohol dehydrogenase (S-ADH) from X. autotrophicus Py2 was purified via the following protocol. Cell-free extracts (380 mL) of isopropanol-grown X. autotrophicus Py2 (150 g) were prepared as described above, and applied to a 5×15 cm column of DEAE-Sepharose FAST FLOW (Diethylaminoethyl cross-linked agarose bead material; Catalog number 17-0709-10, Amersham Pharmacia Biotech, Piscataway, N.J.)) equilibrated in buffer A (25 mM MOPS (3-(N-morpholino)propanesulfonic acid), pH 7.6, 5% glycerol, 1 mM dithiothreitol) at a flow rate of 10 mL/min. After loading, the column was washed with […] buffer A and developed with a 2400 mL linear gradient of 90-290 mM KCl in buffer A. Fractions containing S-ADH activity were pooled and dialyzed against 2 L of 25 mM potassium phosphate (pH 6.2) containing 5% glycerol (buffer B) for 16 h at 4° C. […] After washing the column with 30 mL of buffer B, S-ADH was eluted with 20 mL of buffer A containing 10 mM NAD^+. Fractions containing S-ADH were then dialyzed against 2 L of buffer A for 16 h at 4° C., concentrated by ultrafiltration (using a YM30 ultrafiltration membrane; catalog no. 13722, from Millipore, Bedford, Mass.), and frozen in liquid nitrogen. Partially purified S-ADH from bacterial screen cultures was prepared as follows: cell-free extracts from 1 to 5 g of cell paste were prepared as described above and applied to a 5 mL HI TRAP Q column (quaternary, tetraethylammonium, cross-linked agarose bead material for use as an anion exchange matrix; catalog number 17-1153-01, Amersham Pharmacia Biotech) equilibrated in 100 mM MOPS, pH 7.6, containing 5% (v/v) glycerol (buffer C). The column was washed with 10 mL buffer C and developed with a 100 mL linear gradient of 0 to 100 mM NaCl in buffer C. Fractions containing S-ADH activity were pooled, concentrated to 0.5 mL using a 30 kDa MWCO (“molecular weight cut-off”) centrifugal membrane (catalog number UFV4BTK25, Millipore), and stored at −80° C.
(§1) Assays were performed in 2 mL quartz cuvettes and contained NAD(H) (0.2 mM), potassium phosphate buffer (25 mM), and a source of enzyme (cell-free extracts, column fractions, or purified enzyme) in a total reaction volume of 1 mL at pH 6.2 ([…]) at 30° C. Assays were pre-incubated for 1.5 min. at 30° C. with all assay components except substrate. Assays were initiated by addition of substrate (2.5 mM) and monitored over time by measuring the change in absorbance at 340 nm (∈340 of 6.22 mM^−1·cm^−1 for NADH).

[1] = tested on: S-ADH from M. vaccae JOB-5; test: S-ADH spectrophotometric assay, propane-grown M. vaccae JOB-5; type: biochemical, Mycobacterium vaccae strain JOB-5; conditions: for Relative S-ADH Activity (%) JOB 5, alcohol oxidation: alcohol oxidation rates, pH 7.6, 2.5 mM substrate, 0.2 mM NAD+, 2-propanol = 100, NA = no activity detected
Description: as §1

S-ADH from T. brockii = biological target: T1, S-ADH from T. brockii (Thermoanaerobacter brockii, UniProt P14941); test: S-ADH spectrophotometric assay, T. brockii S-ADH; type: biochemical, Thermoanaerobium brockii
T1 sequence (P14941 1-352): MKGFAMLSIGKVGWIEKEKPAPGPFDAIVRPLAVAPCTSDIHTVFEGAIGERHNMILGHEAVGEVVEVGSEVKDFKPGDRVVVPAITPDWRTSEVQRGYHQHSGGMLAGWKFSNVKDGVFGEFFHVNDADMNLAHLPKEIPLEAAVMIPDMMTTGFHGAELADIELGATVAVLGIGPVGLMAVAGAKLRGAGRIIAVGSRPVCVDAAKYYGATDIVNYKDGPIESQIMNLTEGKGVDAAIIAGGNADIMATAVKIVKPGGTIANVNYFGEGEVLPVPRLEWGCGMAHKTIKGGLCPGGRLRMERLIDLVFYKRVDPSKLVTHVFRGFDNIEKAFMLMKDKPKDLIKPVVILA
Description: […] Assays were pre-incubated for 1.5 min. at 30° C. with all assay components except substrate. Assays were initiated by addition of substrate (2.5 mM) and monitored over time by measuring the change in absorbance at 340 nm (∈340 of 6.22 mM^−1·cm^−1 for NADH).

S-ADH from C. boidinii = test: S-ADH spectrophotometric assay, C. boidinii S-ADH; type: biochemical, Candida boidinii; conditions: pH 7.6, 5 mM substrate; for Relative S-ADH Activity (%) C. boidinii, alcohol oxidation: alcohol oxidation rates, 0.2 mM NAD+, 2-propanol = 100
Description: as §1, with “Assays were initiated by addition of substrate (2.5 mM) and monitored over time by measuring the change in absorbance at 340 nm (∈340 of 6.22 mM^−1·cm^−1 for NADH).” left out

[2] = tested on: S-ADH from X. autotrophicus strain Py2; test: Secondary alcohol dehydrogenase NADH oxidation spectrophotometric assay; type: biochemical, Xanthobacter autotrophicus strain Py2; conditions: for Relative S-ADH Activity (%) X. Py2, alcohol oxidation: alcohol oxidation rates, pH 7.6, 2.5 mM substrate, 0.2 mM NAD+, 2-propanol = 100, NA = no activity detected; for specific activity, alcohol oxidation: at pH 7.8
Description: as §1
Data analysis. Kinetic constants (Km and Vmax) were calculated by fitting initial rate data to the Michaelis-Menten equation and using the software KaleidaGraph Fourth Edition, (Synergy Software, Reading, Pa.).

[3] = biological target: T2, acetone carboxylase coupled to β-hydroxybutyrate dehydrogenase (Xanthobacter versatilis, UniProt Q8RM03+Q8RM04); test: Acetone carboxylase coupled to NADH oxidation spectrophotometric assay; type: biochemical, X. autotrophicus strain Py2; conditions: alternative compounds in coupled enzyme system
T2 construct: host or cells: X. autotrophicus strain Py2 (native organism; enzyme obtained from Prof; S. A. Ensign / purified as previously published)
T2 sequence (Q8RM03 1-776): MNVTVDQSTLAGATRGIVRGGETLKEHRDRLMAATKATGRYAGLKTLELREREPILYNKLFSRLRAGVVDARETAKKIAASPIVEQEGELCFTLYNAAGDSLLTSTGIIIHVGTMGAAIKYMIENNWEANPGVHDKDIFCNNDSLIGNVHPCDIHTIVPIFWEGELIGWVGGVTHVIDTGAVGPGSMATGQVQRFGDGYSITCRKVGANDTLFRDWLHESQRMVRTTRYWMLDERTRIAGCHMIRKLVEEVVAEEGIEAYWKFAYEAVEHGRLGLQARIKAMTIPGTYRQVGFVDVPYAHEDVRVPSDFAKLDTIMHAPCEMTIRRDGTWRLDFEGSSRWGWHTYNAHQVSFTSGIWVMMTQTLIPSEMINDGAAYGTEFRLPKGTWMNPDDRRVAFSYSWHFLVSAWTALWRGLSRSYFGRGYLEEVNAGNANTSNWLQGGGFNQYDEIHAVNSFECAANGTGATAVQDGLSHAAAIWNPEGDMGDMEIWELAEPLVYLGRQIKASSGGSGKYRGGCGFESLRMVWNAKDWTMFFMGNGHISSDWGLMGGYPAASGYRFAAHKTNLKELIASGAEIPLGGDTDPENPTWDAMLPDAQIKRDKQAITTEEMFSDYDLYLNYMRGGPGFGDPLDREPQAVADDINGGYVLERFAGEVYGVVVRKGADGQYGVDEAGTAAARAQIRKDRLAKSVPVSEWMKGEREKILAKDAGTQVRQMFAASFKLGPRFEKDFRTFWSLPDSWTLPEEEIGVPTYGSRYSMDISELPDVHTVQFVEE
T2 sequence (Q8RM04 1-717): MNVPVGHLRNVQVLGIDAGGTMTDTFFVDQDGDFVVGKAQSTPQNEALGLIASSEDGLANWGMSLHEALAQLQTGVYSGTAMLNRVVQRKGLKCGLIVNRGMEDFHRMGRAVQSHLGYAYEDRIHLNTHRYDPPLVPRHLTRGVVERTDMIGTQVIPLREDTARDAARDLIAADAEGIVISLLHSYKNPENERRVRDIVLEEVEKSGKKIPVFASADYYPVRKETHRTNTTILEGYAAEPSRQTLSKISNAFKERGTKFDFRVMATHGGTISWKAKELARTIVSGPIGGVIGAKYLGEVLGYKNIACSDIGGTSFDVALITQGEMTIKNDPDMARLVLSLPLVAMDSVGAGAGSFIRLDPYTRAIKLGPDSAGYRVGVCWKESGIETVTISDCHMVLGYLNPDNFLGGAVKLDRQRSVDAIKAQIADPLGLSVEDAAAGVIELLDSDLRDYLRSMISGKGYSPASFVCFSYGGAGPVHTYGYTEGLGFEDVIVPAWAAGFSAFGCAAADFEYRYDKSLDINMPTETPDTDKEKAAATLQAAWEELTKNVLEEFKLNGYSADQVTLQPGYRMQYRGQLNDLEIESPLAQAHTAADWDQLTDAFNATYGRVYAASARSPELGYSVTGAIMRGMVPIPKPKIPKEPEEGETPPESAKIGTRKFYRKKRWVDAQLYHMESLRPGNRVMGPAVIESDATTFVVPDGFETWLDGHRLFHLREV
T2 sequence (Q8RM02 2-168 partner limits assumed): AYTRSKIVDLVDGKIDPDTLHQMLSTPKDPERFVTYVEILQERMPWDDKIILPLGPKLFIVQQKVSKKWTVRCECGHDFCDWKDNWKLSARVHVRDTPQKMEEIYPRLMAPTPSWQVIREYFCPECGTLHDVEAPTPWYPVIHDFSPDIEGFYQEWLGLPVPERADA
Description: Assays were performed in 2 mL (1 cm path length) quartz cuvettes that had been modified by fusing a serum bottle-style quartz top (7×13 mm at mouth), allowing the cuvettes to be sealed with a red rubber serum stopper. […] The addition of […] (3 U) and NADH (0.2 mM) allowed acetoacetate formation to be coupled to the oxidation of NADH. […] The reaction was monitored by measuring the decrease in absorbance at 340 nm (∈340 of 6.22 mM^−·cm^−1 for NADH) over time in an Agilent Technologies (Palo Alto, Calif.) model 8453 UV-Visible Spectroscopy System containing a thermostat-controlled cell holder at 30° C.

[4] = tested on: 3-enzyme system (S-ADH coupled to lactate dehydrogenase and pyruvate oxidase); test: S-ADH coupled to H2O2 formation electrochemical assay (3-enzyme system), interference compounds; type: biochemical, X. autotrophicus Py2; conditions: Acetone plus 10 mM ethanol, 50 μM isopropanol or 50 μM isobutanol; data not shown
Description: Secondary alcohol dehydrogenase coupled to H2O2 formation electrochemical assay. […] Before measurements the electrode surface was polished using Al2O3 paste for 1 min. and then rinsed with deionized water, sonicated for 1 min. and rinsed with water again. The polished Pt electrode was then pretreated electrochemically by applying 10 cycles of 100 mV/s from +200 mV to +900 mV. All potentials were referenced versus a Ag/AgCl electrode (BAS part number MF-2078). Assays contained potassium phosphate (100 mM, pH 7.2), purified S-ADH (1 U/mL), NADH (201 μM), lactate (100 mM), lactate dehydrogenase (5 U/mL), pyruvate oxidase (4 U/mL), flavin adenine dinucleotide (0.01 mM), cocarboxylase (0.2 mM), in a total volume of 0.5 mL. […] After a 2 min. incubation period, the potential was stepped from open circuit to 350 mV.

[5] = ketone reduction rates, pH 6.2, 2.5 mM substrate, 0.2 mM NADH, acetone = 100

Compound | Relative S-ADH Activity (%) IP-1, alcohol oxidation (S-ADH from strain IP-1) [%] | Relative S-ADH Activity (%) JOB 5, alcohol oxidation [1] [%] | Relative S-ADH Activity (%) C. boidinii, alcohol oxidation (S-ADH from C. boidinii) [%] | Relative S-ADH Activity (%) X. Py2, alcohol oxidation [2] [%] | specific activity, alcohol oxidation [2] | other results
CCCC(C)O (stereo not shown) [2-Pentanol] | 18 | 68 | 22 | 157 | – | Relative S-ADH Activity (%) T. brockii, alcohol oxidation (S-ADH from T. brockii; alcohol oxidation rates, pH 7.6, 2.5 mM substrate, 0.2 mM NADP+, 2-propanol = 100, NA = no activity detected): 38%
CCCCO [1-Butanol] | 2 | 10 | 6 | 7 | 1.7±0.2 μmol alcohol oxidized min^−1mg^−1 protein | activity as substrate and inhibition of acetone carboxylation activity [3]: not active nor did they inhibit acetone carboxylation activity
CCCCCO [1-Pentanol] | – | – | 8 | – | No activity | –
CC(C)CO [isobutanol] | – | – | – | – | – | interference with the acetone measurement (current response) [4]: do not interfere
CCCC(C)=O [2-Pentanone] | – | – | – | – | – | Relative S-ADH Activity (%) IP-1, ketone reduction (S-ADH from strain IP-1; [5]): 44%; Relative S-ADH Activity (%) JOB 5, ketone reduction [1, 5]: 185%; Relative S-ADH Activity (%) T. brockii, ketone reduction (S-ADH from T. brockii; ketone reduction rates, pH 6.2, 2.5 mM substrate, 0.2 mM NADPH, acetone = 100): 59%; Relative S-ADH Activity (%) C. boidinii, ketone reduction (S-ADH from C. boidinii; ketone reduction rates, 0.2 mM NADH, acetone = 100): 16%; Relative S-ADH Activity (%) X. Py2, ketone reduction [2, 5]: 198%
